Patent publication US5129937A, “Pyridyloxypyrimidine derivatives, preparation process thereof, and herbicidal compositions containing the same as active ingredients” (Mitsui Toatsu Chemicals Incorporated, priority 1989, dated 1992)

Columns and labels:
Format in all cases: in vivo
[1] = system: Barnyardgrass (Echinochloa crus-galli); assay: Upland Soil Application Test; conditions: 30 g ai/a; soil application before emergence, wettable powder; observed 30 days later
Description: (§1) Resin-made 1/2500-are pots were filled with the soil of an upland field. After they were fertilized, soybean, corn and cotton were seeded and 2-3 cm soil covering was applied. Seeds of redroot pigweed, morningglory (Ipomoea purpurea), common lambsquarters, barnyardgrass, green foxtail, large crabgrass, foxtail meadow and johnsongrass had been uniformly mixed with the soil. They were allowed to germinate in a green house. One day later (before emergence of weeds), a wettable powder prepared from a predetermined amount of each test compound in a similar manner to the method described in Formulation Example 1 was diluted with water and then sprayed evenly at an application rate equal to 10 l per are onto the surface of the soil by means of a pressure-operated ULV (ultra low volume) sprayer. Influence to the crops and weeds were observed 30 days later. The results are shown in Table 3, in which the degree of damages of each test plant and the degree of injury to each crop were determined by comparing the air-dried weights of the test plant and crop with those of the corresponding plant and crop in untreated pots and are shown in accordance with the following standard: […]

Common lambsquarters [2] = assay: Upland Soil Application Test; conditions: 30 g ai/a; soil application before emergence, wettable powder; observed 30 days later
Description: as §1

[3] = system: Crabgrass (Digitaria adsendens); assay: Upland Soil Application Test; conditions: 30 g ai/a; soil application before emergence, wettable powder; observed 30 days later
Description: as §1

[4] = system: Foxtail (Setaria viridis); assay: Upland Soil Application Test; conditions: 30 g ai/a; soil application before emergence, wettable powder; observed 30 days later
Description: as §1

Foxtail meadow [5] = assay: Upland Soil Application Test; conditions: 30 g ai/a; soil application before emergence, wettable powder; observed 30 days later
Description: as §1

Johnsongrass [6] = assay: Upland Soil Application Test; conditions: 30 g ai/a; soil application before emergence, wettable powder; observed 30 days later
Description: as §1

Redroot Pigweed [7] = assay: Upland Soil Application Test; conditions: 30 g ai/a; soil application before emergence, wettable powder; observed 30 days later
Description: as §1

Corn (Zea maize) = assay: Upland Soil Application Test, crop injury; conditions: 30 g ai/a; soil application before emergence, wettable powder; observed 30 days later
Description: as §1

[8] = system: Cotton (Gossypium indicum); assay: Upland Soil Application Test, crop injury; conditions: 30 g ai/a; soil application before emergence, wettable powder; observed 30 days later
Description: as §1

Soybean (Glycine max) = assay: Upland Soil Application Test, crop injury; conditions: 30 g ai/a; soil application before emergence, wettable powder; observed 30 days later
Description: as §1

[9] = system: Barnyardgrass (Echinochloa crus-galli); assay: Upland Foliar Application Test; conditions: 30 g ai/a; foliar application at 2-3 leaf stage, emulsion; observed on the 30th day
Description: (§2) Resin-made 1/10000-are pots were filled with the soil of an upland field. Redroot pigweed, morningglory (Ipomoea pupurea), common lambsquarters, foxtail meadow, johnsongrass, barnyardgrass, green foxtail, large crabgrass, soybean, corn and cotton were separately seeded and were allowed to germinate in a green house. When each plant grew to the stage of 2-3 leaves, an emulsion formulated from a predetermined amount of each test compound in a similar manner to the method described in Formulation Example 11 was diluted with water and then sprayed at a predetermined application rate by means of a pressure-operated ULV (ultra low volume) sprayer. The application rate was controlled at 5 l per are. Influence to the crops and weeds were observed on the 30th day after the spray of the herbicides. The results are shown in Table 4 in which the degree of damages of each test plant and the degree of injury to each crop are shown in a similar manner to Test 2.

Common lambsquarters [10] = assay: Upland Foliar Application Test; conditions: 30 g ai/a; foliar application at 2-3 leaf stage, emulsion; observed on the 30th day
Description: as §2

[11] = system: Crabgrass (Digitaria adsendens); assay: Upland Foliar Application Test; conditions: 30 g ai/a; foliar application at 2-3 leaf stage, emulsion; observed on the 30th day
Description: as §2

[12] = system: Foxtail (Setaria viridis); assay: Upland Foliar Application Test; conditions: 30 g ai/a; foliar application at 2-3 leaf stage, emulsion; observed on the 30th day
Description: as §2

Foxtail meadow [13] = assay: Upland Foliar Application Test; conditions: 30 g ai/a; foliar application at 2-3 leaf stage, emulsion; observed on the 30th day
Description: as §2

Johnsongrass [14] = assay: Upland Foliar Application Test; conditions: 30 g ai/a; foliar application at 2-3 leaf stage, emulsion; observed on the 30th day
Description: as §2

Redroot Pigweed [15] = assay: Upland Foliar Application Test; conditions: 30 g ai/a; foliar application at 2-3 leaf stage, emulsion; observed on the 30th day
Description: as §2

[16] = system: Arrowhead sp. (Sagittaria pygmaea); assay: Submerged Soil Treatment Test (Pre-Emergence Treatment); conditions: 30 g ai/a, granule, observed 30 days later
Description: (§3) 1/5000-are Wagner pots were filled with soil. Seeds or tubers of barnyardgrass, bulrush and Sagittaria pygmaea were seeded or planted under submerged condition. Two pairs of rice seedlings (2-3 leaf stage), which had been reared in advance, were transplanted to each pot and were allowed to germinate in a green house. Each pair consisted of two rice seedlings. On day later (before emergence of weeds), each pot was treated with a granule which had been prepared by processing a predetermined amount of the test composition in accordance with a similar method to the method described in Formulation Example 9. The state of emergence of weeds and the state of injury of rice were observed 30 days later. In the table, the degrees of damages of the test plants and the degrees of injury of rice are shown in a similar manner to Example 2.

[17] = system: Barnyardgrass (Echinochloa crus-galli); assay: as above; conditions: 30 g ai/a, granule, observed 30 days later
Description: as §3

[18] = system: Bulrush (Scirpus juncoides); assay: as above; conditions: 30 g ai/a, granule, observed 30 days later
Description: as §3

Rice (Oryza sativa) [19] = assay: Submerged Soil Treatment Test (Pre-Emergence Treatment), crop injury; conditions: 30 g ai/a, granule, transplanted rice, observed 30 days later
Description: as §3

[20] = system: Arrowhead sp. (Sagittaria pygmaea); assay: Submerged Soil Treatment Test (Growth Stage Treatment); conditions: 30 g ai/a, growth stage treatment (barnyardgrass two-leaf stage), granule, observed 30 days later
Description: as §3, with “allowed to grow in a” for “allowed to germinate in a”, “rice seedlings. When the barnyardgrass grew to the two-leaf stage, each pot” for “rice seedlings. On day later (before emergence of weeds), each pot”, “injury of the rice are” for “injury of rice are”

[21] = system: Barnyardgrass (Echinochloa crus-galli); assay: as above; conditions: 30 g ai/a, growth stage treatment (barnyardgrass two-leaf stage), granule, observed 30 days later
Description: as §3, with “allowed to grow in a” for “allowed to germinate in a”, “rice seedlings. When the barnyardgrass grew to the two-leaf stage, each pot” for “rice seedlings. On day later (before emergence of weeds), each pot”, “injury of the rice are” for “injury of rice are”

[22] = system: Bulrush (Scirpus juncoides); assay: as above; conditions: 30 g ai/a, growth stage treatment (barnyardgrass two-leaf stage), granule, observed 30 days later
Description: as §3, with “allowed to grow in a” for “allowed to germinate in a”, “rice seedlings. When the barnyardgrass grew to the two-leaf stage, each pot” for “rice seedlings. On day later (before emergence of weeds), each pot”, “injury of the rice are” for “injury of rice are”

Rice (Oryza sativa) [23] = assay: Submerged Soil Treatment Test (Growth Stage Treatment), crop injury; conditions: 30 g ai/a, growth stage treatment (barnyardgrass two-leaf stage), granule, transplanted rice, observed 30 days later
Description: as §3, with “allowed to grow in a” for “allowed to germinate in a”, “rice seedlings. When the barnyardgrass grew to the two-leaf stage, each pot” for “rice seedlings. On day later (before emergence of weeds), each pot”, “injury of the rice are” for “injury of rice are”

## CCCCOC(OCCCC)c1ncccc1Oc1nc(OC)cc(OC)n1 [Compound No. 4]
[1]
  Herbicidal effects Barnyardgrass (Echinochloa crus-galli): 5 (0-5 (Death))
Common lambsquarters [2]
  Herbicidal effects Common lambquarters: 5 (0-5 (Death))
[3]
  Herbicidal effects Crabgrass (Digitaria adsendens): 5 (0-5 (Death))
[4]
  Herbicidal effects Foxtail (Setaria viridis): 5 (0-5 (Death))
Foxtail meadow [5]
  Herbicidal effects Foxtail meadow: 5 (0-5 (Death))
Johnsongrass [6]
  Herbicidal effects Johnsongrass: 5 (0-5 (Death))
Redroot Pigweed [7]
  Herbicidal effects Redroot Pigweed: 5 (0-5 (Death))
Corn (Zea maize)
  Crop injury Corn (Zea maize): 0 (91-100 (No damages))
[8]
  Crop injury Cotton (Gossypium indicum): 0 (91-100 (No damages))
Soybean (Glycine max)
  Crop injury Soybean (Glycine max): 0 (91-100 (No damages))
[9]
  Herbicidal effects Barnyardgrass (Echinochloa crus-galli): 5 (0-5 (Death))
Common lambsquarters [10]
  Herbicidal effects Common lambquarters: 5 (0-5 (Death))
[11]
  Herbicidal effects Crabgrass (Digitaria adsendens): 5 (0-5 (Death))
[12]
  Herbicidal effects Foxtail (Setaria viridis): 5 (0-5 (Death))
Foxtail meadow [13]
  Herbicidal effects Foxtail meadow: 5 (0-5 (Death))
Johnsongrass [14]
  Herbicidal effects Johnsongrass: 5 (0-5 (Death))
Redroot Pigweed [15]
  Herbicidal effects Redroot Pigweed: 5 (0-5 (Death))
[16]
  Herbicidal effects Arrowhead sp. (Sagittaria pygmaea): 5 (0-5 (Death))
[17]
  Herbicidal effects Barnyardgrass (Echinochloa crus-galli): 5 (0-5 (Death))
[18]
  Herbicidal effects Bulrush (Scirpus juncoides): 5 (0-5 (Death))
Rice (Oryza sativa) [19]
  Crop injury Rice (Oryza sativa): 0 (91-100 (No damages))
[20]
  Herbicidal effects Arrowhead sp. (Sagittaria pygmaea): 4 (6-10 (Severe damages))
[21]
  Herbicidal effects Barnyardgrass (Echinochloa crus-galli): 5 (0-5 (Death))
[22]
  Herbicidal effects Bulrush (Scirpus juncoides): 4 (6-10 (Severe damages))
Rice (Oryza sativa) [23]
  Crop injury Rice (Oryza sativa): 0 (91-100 (No damages))

## COc1cc(OC)nc(Oc2cccnc2C=O)n1 [Compound No. 1, 4,6-dimethoxy-2-(2-formyl-3-pyridyloxy)pyrimidine]
[1]
  Herbicidal effects Barnyardgrass (Echinochloa crus-galli): 3 (11-40 (Medium damages))
Common lambsquarters [2]
  Herbicidal effects Common lambquarters: 2 (41-70 (Small damages))
[3]
  Herbicidal effects Crabgrass (Digitaria adsendens): 2 (41-70 (Small damages))
[4]
  Herbicidal effects Foxtail (Setaria viridis): 3 (11-40 (Medium damages))
Foxtail meadow [5]
  Herbicidal effects Foxtail meadow: 3 (11-40 (Medium damages))
Johnsongrass [6]
  Herbicidal effects Johnsongrass: 4 (6-10 (Severe damages))
Redroot Pigweed [7]
  Herbicidal effects Redroot Pigweed: 3 (11-40 (Medium damages))
Corn (Zea maize)
  Crop injury Corn (Zea maize): 0 (91-100 (No damages))
[8]
  Crop injury Cotton (Gossypium indicum): 0 (91-100 (No damages))
Soybean (Glycine max)
  Crop injury Soybean (Glycine max): 0 (91-100 (No damages))
[9]
  Herbicidal effects Barnyardgrass (Echinochloa crus-galli): 5 (0-5 (Death))
Common lambsquarters [10]
  Herbicidal effects Common lambquarters: 5 (0-5 (Death))
[11]
  Herbicidal effects Crabgrass (Digitaria adsendens): 4 (6-10 (Severe damages))
[12]
  Herbicidal effects Foxtail (Setaria viridis): 5 (0-5 (Death))
Foxtail meadow [13]
  Herbicidal effects Foxtail meadow: 5 (0-5 (Death))
Johnsongrass [14]
  Herbicidal effects Johnsongrass: 5 (0-5 (Death))
Redroot Pigweed [15]
  Herbicidal effects Redroot Pigweed: 5 (0-5 (Death))
[16]
  Herbicidal effects Arrowhead sp. (Sagittaria pygmaea): 4 (6-10 (Severe damages))
[17]
  Herbicidal effects Barnyardgrass (Echinochloa crus-galli): 4 (6-10 (Severe damages))
[18]
  Herbicidal effects Bulrush (Scirpus juncoides): 4 (6-10 (Severe damages))
Rice (Oryza sativa) [19]
  Crop injury Rice (Oryza sativa): 1 (71-90 (Slight damages))
[20]
  Herbicidal effects Arrowhead sp. (Sagittaria pygmaea): 4 (6-10 (Severe damages))
[21]
  Herbicidal effects Barnyardgrass (Echinochloa crus-galli): 5 (0-5 (Death))
[22]
  Herbicidal effects Bulrush (Scirpus juncoides): 5 (0-5 (Death))
Rice (Oryza sativa) [23]
  Crop injury Rice (Oryza sativa): 1 (71-90 (Slight damages))
